The target of test [1] is T1, phosphorylated ERBB2 (pERBB2) (Homo sapiens, UniProt P04626).
T1 construct: endogenous in cells; host or cells: BT-474
The experiment in a line: Detection of phosphorylated ERBB2 (pERBB2) by ELISA in BT-474 cells. The format is cell-based. The conditions noted are these: four hour incubation. How it is done:
BT-474 cells were seeded into a 96-well at 2.0*10^4 cells/100 μl/well. Compounds were dissolved and serially diluted in DMSO. The compounds were then were added, mixed, and incubated for four hours at 37° C., 5% CO2. Compounds were added using four-fold dilutions at final concentrations ranging from 10 μM to 0.01 nM. Following the four hour incubation with compounds, cell lysates were prepared. Plates were centrifuged for 5 μmin at 3000 RPM, and supernatant was removed from each well. Cells were washed 3 times by resuspension in 150 μl PBS, followed by centrifugation and removal of the supernatant, as above. 100 μl of cell lysis buffer (Boston BioProducts, cat #BP-115D) supplied with 1× complete ULTRA cocktail inhibitor (Thermo ScientificTM, cat #78443) was then added to the washed cells. Cells were incubated with lysis buffer for 1 hour at 4° C., and then stored at -80° C. Enzyme-linked immunosorbent assays (ELISA) were performed to measure phosphorylated ERBB2 levels. […] The next day, plates were washed with PBS+0.05% Tween20 (PBST). 150 μl of 5% BSA blocking solution was added for 1 hour at room temperature, with shaking. Plates were washed with PBST. Cell lysates were thawed and 100 μl of lysate was added to the ELISA plate. The plates were incubated for 2 hours at room temperature, with shaking. ELISA plates were then washed with PBST and 100 μl of an HRP-labeled detection antibody that binds phosphorylated tyrosine (R&D Systems, cat #841913) was added to each well. Plates were incubated for 1 hour at room temperature, with shaking. Plates were then washed with PBST, and 100 μl TMB substrate solution (R&D Systems, cat #DY999) was added. Plate were incubated in the dark for 20 minutes at room temperature. 50 μl of Stop solution (R&D Systems, cat #DY994) (50 μl) was added to each well and mixed. Optical density at 450 nm was read on an EnSpire plate reader (Perkin Elmer). The remaining kinase activity by calculated using the following formula: % Relative activity=100×([…]). The low and high control values (“LC” and “HC”) were generated from lysate from wells without cells or with cells treated with 0.1% DMSO, respectively.

Test [2] deals with T2, phosphorylated EGFR (pEGFR) (Homo sapiens, UniProt P00533).
T2 construct: performed to measure phosphorylated EGFR levels using A431 cells (10% FBS); endogenous in cells; host or cells: A431
T2 sequence (P00533 25-1210): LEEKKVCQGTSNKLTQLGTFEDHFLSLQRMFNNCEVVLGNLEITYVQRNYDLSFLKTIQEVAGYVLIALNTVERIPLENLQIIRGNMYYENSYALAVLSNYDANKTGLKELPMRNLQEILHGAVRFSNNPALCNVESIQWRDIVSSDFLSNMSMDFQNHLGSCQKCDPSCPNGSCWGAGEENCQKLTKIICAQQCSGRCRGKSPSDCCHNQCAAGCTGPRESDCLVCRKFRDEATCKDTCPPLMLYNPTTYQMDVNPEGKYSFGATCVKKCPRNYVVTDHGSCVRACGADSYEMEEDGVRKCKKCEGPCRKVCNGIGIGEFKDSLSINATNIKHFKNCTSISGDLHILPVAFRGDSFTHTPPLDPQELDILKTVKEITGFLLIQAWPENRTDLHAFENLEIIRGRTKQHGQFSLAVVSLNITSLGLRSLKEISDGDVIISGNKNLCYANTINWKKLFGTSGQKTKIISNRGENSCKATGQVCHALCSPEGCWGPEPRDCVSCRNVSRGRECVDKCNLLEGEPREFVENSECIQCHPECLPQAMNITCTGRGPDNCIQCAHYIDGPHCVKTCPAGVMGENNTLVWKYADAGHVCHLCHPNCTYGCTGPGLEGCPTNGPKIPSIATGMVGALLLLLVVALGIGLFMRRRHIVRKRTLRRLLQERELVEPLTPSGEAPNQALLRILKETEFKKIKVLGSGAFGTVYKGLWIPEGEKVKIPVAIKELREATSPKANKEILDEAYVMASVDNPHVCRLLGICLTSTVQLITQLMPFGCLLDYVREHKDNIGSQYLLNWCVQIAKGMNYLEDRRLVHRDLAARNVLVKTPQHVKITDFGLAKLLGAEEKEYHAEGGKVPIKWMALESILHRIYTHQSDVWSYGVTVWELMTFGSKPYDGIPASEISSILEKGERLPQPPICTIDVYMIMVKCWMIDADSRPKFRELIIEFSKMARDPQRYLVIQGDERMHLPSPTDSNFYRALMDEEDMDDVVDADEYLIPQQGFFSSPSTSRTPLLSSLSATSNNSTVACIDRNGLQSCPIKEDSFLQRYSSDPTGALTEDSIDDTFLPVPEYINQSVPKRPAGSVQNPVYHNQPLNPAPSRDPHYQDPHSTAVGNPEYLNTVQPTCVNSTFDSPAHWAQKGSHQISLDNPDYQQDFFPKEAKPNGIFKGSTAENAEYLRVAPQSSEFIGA
The experiment in a line: Detection of phosphorylated EGFR (pEGFR) by AlphaLISA in EGF-stimulated A431 cells. The format is cell-based. The conditions noted are these: A431 cells (10% FBS), 4 hours incubation, EGF 30 ng/mL for 10 minutes. On the procedure:
Enzyme-linked immunosorbent assays (ELISA) were performed to measure phosphorylated EGFR levels using A431 cells (10% FBS). A431 (1.0*10^4 cells/40 μl/well) cells were seeded in 384 well. Compounds were dissolved in DMSO, serially diluted in DMSO and then were added, mixed, and incubated for 4 hours at 37° C., 5% C02. Following the 4-hours incubation, cells were stimulated for 10 minutes with EGF (Invitrogen, cat #PHG0311) at a final concentration of 30 ng/mL in the incubator. The media was aspirated and cells were lysed in 10 μL lysis buffer with protease and phosphatase inhibitors (PerkinElmer, cat #ALSU-PEGFR-A50K). The plates were placed on a shaker for 5 μminutes and then incubated for 30 min at 4° C. for complete lysis. The lysate was transferred to an Optiplate (Perkin Elmer, cat #6007290).
Acceptor mix (PerkinElmer, cat #ALSU-PEGFR-A50K) was prepared just before use and 5 μL was dispensed to all the wells, followed by a 1.5-2 h incubation at room temperature in dark. The donor mix (PerkinElmer, cat #ALSU-PEGFR-A50K) was prepared under low light conditions prior to use and 5 μl of donor mix was added to all the wells under subdued lighting or green filters. The plates were placed on a shaker for 5 μmin, sealed, and incubated overnight at room temperature in dark. Plates were read on the Envision (PerkinElmer) using standard AlphaLISA settings.
The percentage of inhibition on EGFR phosphorylation was calculated following equation: % Inhibition=100×(LumHC−LumSample)/(LumHC−LumLC). The low and high controls (LC/HC) are generated from lysate from wells with cells treated with DMSO or […] Staurosporine (BioAustralis, cat #BIA-S1086), […]. IC50 values were calculated by fitting the Curve using XLfit (v5.3.1.3), equation 201: Y=Bottom+(Top−Bottom)/(1+10^((Log IC50−X)*HillSlope)).
On the technique in general: In Alpha technology, singlet oxygen from a donor bead excites a nearby acceptor bead.

The values below come from patent publication US20260078135A1, “POLYCYCLIC QUINAZOLINES FOR INHIBITION OF ERBB2” (Enliven Inc., priority 2022, published 2026).

T1 sequence (P04626 23-1255): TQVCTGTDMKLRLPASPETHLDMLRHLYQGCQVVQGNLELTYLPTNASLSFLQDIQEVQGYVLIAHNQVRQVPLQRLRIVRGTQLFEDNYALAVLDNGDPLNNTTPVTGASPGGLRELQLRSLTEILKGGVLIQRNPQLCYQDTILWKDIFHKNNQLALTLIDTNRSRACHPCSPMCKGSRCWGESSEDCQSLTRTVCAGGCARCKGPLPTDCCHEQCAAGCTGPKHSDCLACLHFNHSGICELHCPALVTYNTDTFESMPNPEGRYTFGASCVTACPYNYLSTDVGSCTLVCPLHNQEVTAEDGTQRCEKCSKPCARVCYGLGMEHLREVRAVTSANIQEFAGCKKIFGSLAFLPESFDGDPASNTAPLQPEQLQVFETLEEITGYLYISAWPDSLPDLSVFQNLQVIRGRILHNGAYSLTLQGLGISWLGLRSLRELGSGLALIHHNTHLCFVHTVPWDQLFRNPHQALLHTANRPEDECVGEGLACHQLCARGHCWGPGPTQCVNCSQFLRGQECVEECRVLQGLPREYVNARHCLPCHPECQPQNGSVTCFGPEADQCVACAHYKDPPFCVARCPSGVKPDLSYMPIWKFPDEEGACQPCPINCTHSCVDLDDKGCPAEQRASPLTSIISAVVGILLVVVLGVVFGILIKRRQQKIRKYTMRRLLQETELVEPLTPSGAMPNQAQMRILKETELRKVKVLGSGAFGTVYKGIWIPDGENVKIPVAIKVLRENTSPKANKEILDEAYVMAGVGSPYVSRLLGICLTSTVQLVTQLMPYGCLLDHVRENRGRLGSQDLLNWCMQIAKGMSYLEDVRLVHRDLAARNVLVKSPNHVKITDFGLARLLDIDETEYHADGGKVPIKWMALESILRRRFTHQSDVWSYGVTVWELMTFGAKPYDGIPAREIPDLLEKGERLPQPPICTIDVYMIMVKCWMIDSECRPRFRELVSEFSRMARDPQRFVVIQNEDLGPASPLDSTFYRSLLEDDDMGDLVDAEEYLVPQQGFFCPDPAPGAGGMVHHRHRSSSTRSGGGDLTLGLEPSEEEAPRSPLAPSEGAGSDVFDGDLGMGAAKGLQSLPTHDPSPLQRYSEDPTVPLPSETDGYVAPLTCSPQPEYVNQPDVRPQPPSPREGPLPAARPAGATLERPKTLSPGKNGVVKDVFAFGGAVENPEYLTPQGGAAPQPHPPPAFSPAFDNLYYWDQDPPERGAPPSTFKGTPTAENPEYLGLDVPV

The term IC50 denotes the point on the concentration scale where inhibition reaches its midpoint. With `Cc1cc(Nc2ncnc3ccc4c(c23)OC[C@H]2CN4CCN2C)ccc1Oc1ccc2c(c1)ncn2C` [Compound 56, (3R)-4-methyl-N-(3-methyl-4-((1-methyl-1H-benzo[d]imidazol-5-yl)oxy)phenyl)-3,4,5,6-tetrahydro-2H-3,7-methano[1,4,7]oxadiazonino[2,3-f]quinazolin-13-amine], the IC50 in test [1] is 127 nM; in test [2], more than 10000 nM.
Turning to `Cc1cc(Nc2ncnc3cc4c(cc23)N2CCNC[C@H]2CO4)ccc1Oc1ccn2ncnc2c1` [Compound 57, (S)—N-(4-([1,2,4]triazolo[1,5-a]pyridin-7-yloxy)-3-methylphenyl)-1,2,3,4,4a,5-hexahydropyrazino[1′,2′:4,5][1,4]oxazino[3,2-g]quinazolin-11-amine], the values for the IC50 in test [1] and in test [2] were 26.7 nM and more than 10000 nM, respectively.
For the molecule `Cc1cc(Nc2ncnc3cc4c(cc23)N2CCN(C)C[C@H]2CO4)ccc1Oc1ccn2ncnc2c1` [Compound 58, (S)—N-(4-([1,2,4]triazolo[1,5-a]pyridin-7-yloxy)-3-methylphenyl)-3-methyl-1,2,3,4,4a,5-hexahydropyrazino[1′,2′:4,5][1,4]oxazino[3,2-g]quinazolin-11-amine], the IC50 was 21.9 nM in test [1] and more than 10000 nM in test [2].
With `Cc1cc(Nc2ncnc3cc4c(cc23)N2CCNC[C@@H]2CO4)ccc1Oc1ccn2ncnc2c1` [Compound 59, (R)—N-(4-([1,2,4]triazolo[1,5-a]pyridin-7-yloxy)-3-methylphenyl)-1,2,3,4,4a,5-hexahydropyrazino[1′,2′:4,5][1,4]oxazino[3,2-g]quinazolin-11-amine], the IC50 in test [1] was 91.7 nM; in test [2] it was more than 10000 nM.
In the case of `Cc1cc(Nc2ncnc3cc4c(cc23)N2CCN(C)C[C@@H]2CO4)ccc1Oc1ccn2ncnc2c1` [Compound 60, (R)—N-(4-([1,2,4]triazolo[1,5-a]pyridin-7-yloxy)-3-methylphenyl)-3-methyl-1,2,3,4,4a,5-hexahydropyrazino[1′,2′:4,5][1,4]oxazino[3,2-g]quinazolin-11-amine], the IC50 in test [1] was 97.2 nM; in test [2] it was more than 10000 nM.
Take `Cc1cc(Nc2ncnc3cc4c(cc23)N2CCNC[C@H]2CO4)ccc1Oc1ccc2c(c1)ncn2C` [Compound 61, (S)—N-(3-methyl-4-((1-methyl-1H-benzo[d]imidazol-5-yl)oxy)phenyl)-1,2,3,4,4a,5-hexahydropyrazino[1′,2′:4,5][1,4]oxazino[3,2-g]quinazolin-11-amine]: the IC50 in test [1] is 118 nM; in test [2] it was more than 10000 nM.
As for `Cc1cc(Nc2ncnc3cc4c(cc23)N2CCN(C)C[C@H]2CO4)ccc1Oc1ccc2c(c1)ncn2C` [Compound 62, (S)-3-methyl-N-(3-methyl-4-((1-methyl-1H-benzo[d]imidazol-5-yl)oxy)phenyl)-1,2,3,4,4a,5-hexahydropyrazino[1′,2′:4,5][1,4]oxazino[3,2-g]quinazolin-11-amine], the IC50 in test [1] was 38.5 nM; in test [2] it was more than 10000 nM.
As to `Cc1cc(Nc2ncnc3cc4c(cc23)N2CCNC[C@@H]2CO4)ccc1Oc1ccc2c(c1)ncn2C` [Compound 63, (R)—N-(3-methyl-4-((1-methyl-1H-benzo[d]imidazol-5-yl)oxy)phenyl)-1,2,3,4,4a,5-hexahydropyrazino[1′,2′:4,5][1,4]oxazino[3,2-g]quinazolin-11-amine], the IC50 is 153 nM in test [1] and more than 10000 nM in test [2].
As for `Cc1cc(Nc2ncnc3cc4c(cc23)N2CCN(C)C[C@@H]2CO4)ccc1Oc1ccc2c(c1)ncn2C` [Compound 64, (R)-3-methyl-N-(3-methyl-4-((1-methyl-1H-benzo[d]imidazol-5-yl)oxy)phenyl)-1,2,3,4,4a,5-hexahydropyrazino[1′,2′:4,5][1,4]oxazino[3,2-g]quinazolin-11-amine], the IC50 in test [1] is 223 nM; in test [2], more than 10000 nM.
`CCN1CCN2c3nc4c(Nc5ccc(Oc6ccn7ncnc7c6)c(C)c5)ncnc4cc3OC[C@@H]2C1` [Compound 65, (S)—N-(4-([1,2,4]triazolo[1,5-a]pyridin-7-yloxy)-3-methylphenyl)-3-ethyl-1,2,3,4,4a,5-hexahydropyrazino[1,2-d]pyrimido[4′,5′:5,6]pyrido[3,2-b][1,4]oxazin-11-amine]: the IC50 was 94.9 nM in test [1] and more than 10000 nM in test [2].
On to `Cc1cc(Nc2ncnc3cc4c(c(F)c23)N2CCN(C)C[C@H]2CO4)ccc1Oc1ccn2ncnc2c1` [Compound 66, (S)—N-(4-([1,2,4]triazolo[1,5-a]pyridin-7-yloxy)-3-methylphenyl)-12-fluoro-3-methyl-1,2,3,4,4a,5-hexahydropyrazino[1′,2′:4,5][1,4]oxazino[3,2-g]quinazolin-11-amine], for which the IC50 in test [1] is 119 nM; in test [2] it was more than 10000 nM.
As to `Cc1cc(Nc2ncnc3cc4c(nc23)N2CCOC[C@H]2CO4)ccc1Oc1ccn2ncnc2c1` [Compound 67, (S)—N-(4-([1,2,4]triazolo[1,5-a]pyridin-7-yloxy)-3-methylphenyl)-1,2,4a,5-tetrahydro-4H-[1,4]oxazino[4,3-d]pyrimido[4′,5′:5,6]pyrido[3,2-b][1,4]oxazin-11-amine], the IC50 in test [1] was 46.4 nM; in test [2], more than 10000 nM.
With `Cc1cc(Nc2ncnc3cc4c(nc23)N2CCCC[C@H]2CO4)ccc1Oc1ccn2ncnc2c1` [Compound 68, (S)—N-(4-([1,2,4]triazolo[1,5-a]pyridin-7-yloxy)-3-methylphenyl)-1,2,3,4,4a,5-hexahydropyrido[1,2-d]pyrimido[4′,5′:5,6]pyrido[3,2-b][1,4]oxazin-11-amine], the IC50 in test [1] was 55.5 nM; in test [2], more than 10000 nM.
On to `Cc1cc(Nc2ncnc3cc4c(nc23)N2CCC[C@H]2CO4)ccc1Oc1ccn2ncnc2c1` [Compound 69, (S)—N-(4-([1,2,4]triazolo[1,5-a]pyridin-7-yloxy)-3-methylphenyl)-2,3,3a,4-tetrahydro-1H-pyrimido[4′,5′:5,6]pyrido[3,2-b]pyrrolo[1,2-d][1,4]oxazin-10-amine], for which the IC50 in test [1] is 99.8 nM; in test [2], more than 10000 nM.
For `Cc1cc(Nc2ncnc3cc4c(nc23)N2CC[C@H]2CO4)ccc1Oc1ccn2ncnc2c1` [Compound 70, (S)—N-(4-([1,2,4]triazolo[1,5-a]pyridin-7-yloxy)-3-methylphenyl)-1,2,2a,3-tetrahydroazeto[1,2-d]pyrimido[4′,5′:5,6]pyrido[3,2-b][1,4]oxazin-9-amine], the IC50 in test [1] was 185 nM; in test [2] it was more than 10000 nM.
As for `Cc1cc(Nc2ncnc3ccc4c(c23)OC[C@H]2CN4CCO2)ccc1Oc1ccn2ncnc2c1` [Compound 71, (3R)—N-(4-([1,2,4]triazolo[1,5-a]pyridin-7-yloxy)-3-methylphenyl)-2,3,5,6-tetrahydro-3,7-methano[1,4,7]dioxazonino[5,6-f]quinazolin-13-amine], the results for the half-maximal inhibitory concentration (IC50) in test [1] and in test [2] were 227 nM and more than 10000 nM, respectively.
The matching figures for `Cc1cc(Nc2ncnc3ccc4c(c23)OC[C@@H]2CN4CCO2)ccc1Oc1ccn2ncnc2c1` [Compound 72, (3S)—N-(4-([1,2,4]triazolo[1,5-a]pyridin-7-yloxy)-3-methylphenyl)-2,3,5,6-tetrahydro-3,7-methano[1,4,7]dioxazonino[5,6-f]quinazolin-13-amine]: 417 nM and more than 10000 nM.
